This note sets out measurements from ChEMBL document CHEMBL4145493, “Tetrahydroacridine derivatives with dichloronicotinic acid moiety as attractive, multipotent agents for Alzheimer's disease treatment” (Eur J Med Chem, 2018).

In general, IC50 refers to the concentration needed to halve the response being measured. One may read the inhibition as the share of the control response that was lost under treatment. Lower therefore signals a weak effect.

One data set has as its target Cholinesterase (Equus caballus, UniProt P81908). The data set is described as follows: Inhibition of equine serum BuChE using acetylthiocholine iodide as substrate after 8 mins by Ellman's method.
For the next data set, the target named is Acetylcholinesterase (Electrophorus electricus, UniProt O42275). Nature of the data set: Inhibition of electric eel AChE using acetylthiocholine iodide as substrate after 10 mins by Ellman's method.
Data set [1] in a line: Cytotoxicity against human A549 cells assessed as cell viability at 2.3 uM after 48 hrs by MTT assay relative to control. Type of data set: cell-based. To be noted: read-out: Activity. (Formazan colour is commonly taken as a measure of viable cells.)
A further data set has as its target T1, Hyaluronidase (Bos taurus, UniProt Q8SQG8+Q5E985).
T1 sequence (Q8SQG8 whole entry): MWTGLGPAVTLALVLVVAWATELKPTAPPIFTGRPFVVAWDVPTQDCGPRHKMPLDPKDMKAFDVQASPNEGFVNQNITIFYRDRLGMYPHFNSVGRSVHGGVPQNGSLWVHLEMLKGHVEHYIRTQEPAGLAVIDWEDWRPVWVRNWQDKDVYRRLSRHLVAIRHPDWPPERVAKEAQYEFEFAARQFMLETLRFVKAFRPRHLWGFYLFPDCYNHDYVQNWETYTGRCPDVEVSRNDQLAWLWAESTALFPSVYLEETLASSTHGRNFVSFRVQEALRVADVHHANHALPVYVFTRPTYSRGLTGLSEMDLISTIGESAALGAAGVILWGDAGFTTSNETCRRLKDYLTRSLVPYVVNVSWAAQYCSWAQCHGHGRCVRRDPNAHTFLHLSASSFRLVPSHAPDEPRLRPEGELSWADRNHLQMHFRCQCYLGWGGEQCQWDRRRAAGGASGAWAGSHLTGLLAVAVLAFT
T1 sequence (Q5E985 whole entry): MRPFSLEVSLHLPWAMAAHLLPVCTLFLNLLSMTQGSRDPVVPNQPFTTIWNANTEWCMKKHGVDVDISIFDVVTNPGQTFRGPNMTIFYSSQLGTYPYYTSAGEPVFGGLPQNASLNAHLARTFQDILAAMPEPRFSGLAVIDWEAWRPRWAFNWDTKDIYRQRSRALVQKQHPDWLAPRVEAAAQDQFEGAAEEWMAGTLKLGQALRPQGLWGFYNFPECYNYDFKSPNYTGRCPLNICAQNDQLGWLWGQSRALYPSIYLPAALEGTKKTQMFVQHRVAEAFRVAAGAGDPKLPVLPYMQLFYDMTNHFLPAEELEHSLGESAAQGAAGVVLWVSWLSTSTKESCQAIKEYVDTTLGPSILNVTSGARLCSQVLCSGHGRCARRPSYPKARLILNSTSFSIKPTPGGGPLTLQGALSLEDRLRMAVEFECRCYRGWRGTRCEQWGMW
Nature of the data set: Inhibition of bovine testes hyaluronidase using hyaluronic acid as substrate preincubated for 10 mins in dark followed by incubation with substrate for 45 mins and subsequent addition of serum albumin measured after 10 mins by turbidimetric method. It is filed as protein assay.

In data set [2] the target is Amyloid-beta precursor protein (Homo sapiens) (UniProt P05067). Nature of the data set: Inhibition of self-induced amyloid beta (1 to 42) (unknown origin) aggregation at 10 uM measured after 24 hrs by ThT fluorescence assay relative to control.
A further data set deals with BuChE (equine serum). Nature of the data set: Selectivity index, ratio of IC50 for human A549 cells to IC50 for equine serum BuChE. Type of data set: toxicity. To be noted: read-out: Ratio IC50.
Data set [3] concerns the target Amyloid-beta precursor protein (Homo sapiens) (UniProt P05067). The data set is described as follows: Inhibition of self-induced amyloid beta (1 to 42) (unknown origin) aggregation at 50 uM measured after 24 hrs by ThT fluorescence assay relative to control.
Data set [4] has the same target. The data set is described as follows: Inhibition of self-induced amyloid beta (1 to 42) (unknown origin) aggregation at 5 uM measured after 24 hrs by ThT fluorescence assay relative to control.
The nature of data set [5]: Cytotoxicity against human A549 cells assessed as cell viability at 0.9 uM after 48 hrs by MTT assay relative to control. Type of data set: cell-based. To be noted: read-out: Activity.
In another data set the test system is AChE (electric eel). The data set is described as follows: Selectivity index, ratio of IC50 for human A549 cells to IC50 for electric eel AChE. It is filed as toxicity. To be noted: read-out: Ratio IC50.
The test system of a further data set is A549. Nature of the data set: Cytotoxicity against human A549 cells assessed as cell viability after 48 hrs by MTT assay. It is filed as cell-based. The settings on record: A549, 48 h.
Data set [6] addresses Amyloid-beta precursor protein (Homo sapiens) (UniProt P05067). The data set is described as follows: Inhibition of self-induced amyloid beta (1 to 42) (unknown origin) aggregation at 25 uM measured after 24 hrs by ThT fluorescence assay relative to control.

Chain of Amyloid-beta precursor protein (Homo sapiens) (P05067 whole entry): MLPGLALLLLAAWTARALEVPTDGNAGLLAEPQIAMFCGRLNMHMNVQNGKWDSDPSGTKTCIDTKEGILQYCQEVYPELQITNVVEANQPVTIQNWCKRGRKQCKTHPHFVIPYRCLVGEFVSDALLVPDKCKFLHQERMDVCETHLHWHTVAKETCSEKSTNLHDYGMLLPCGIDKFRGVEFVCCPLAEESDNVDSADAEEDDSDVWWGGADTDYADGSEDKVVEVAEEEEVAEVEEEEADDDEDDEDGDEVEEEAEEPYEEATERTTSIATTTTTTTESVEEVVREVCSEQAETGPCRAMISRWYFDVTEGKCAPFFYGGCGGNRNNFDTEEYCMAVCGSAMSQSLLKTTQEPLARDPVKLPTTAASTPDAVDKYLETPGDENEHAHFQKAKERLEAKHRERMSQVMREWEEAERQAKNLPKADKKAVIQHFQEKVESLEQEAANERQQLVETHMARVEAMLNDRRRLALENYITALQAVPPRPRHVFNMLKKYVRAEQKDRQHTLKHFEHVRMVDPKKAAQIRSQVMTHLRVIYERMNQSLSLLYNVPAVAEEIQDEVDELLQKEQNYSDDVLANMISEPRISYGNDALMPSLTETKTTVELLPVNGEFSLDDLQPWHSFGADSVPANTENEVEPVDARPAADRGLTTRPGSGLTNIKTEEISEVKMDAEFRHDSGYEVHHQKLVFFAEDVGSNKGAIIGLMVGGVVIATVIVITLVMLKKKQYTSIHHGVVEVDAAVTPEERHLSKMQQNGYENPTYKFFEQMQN
Chain of Cholinesterase (P81908 whole entry): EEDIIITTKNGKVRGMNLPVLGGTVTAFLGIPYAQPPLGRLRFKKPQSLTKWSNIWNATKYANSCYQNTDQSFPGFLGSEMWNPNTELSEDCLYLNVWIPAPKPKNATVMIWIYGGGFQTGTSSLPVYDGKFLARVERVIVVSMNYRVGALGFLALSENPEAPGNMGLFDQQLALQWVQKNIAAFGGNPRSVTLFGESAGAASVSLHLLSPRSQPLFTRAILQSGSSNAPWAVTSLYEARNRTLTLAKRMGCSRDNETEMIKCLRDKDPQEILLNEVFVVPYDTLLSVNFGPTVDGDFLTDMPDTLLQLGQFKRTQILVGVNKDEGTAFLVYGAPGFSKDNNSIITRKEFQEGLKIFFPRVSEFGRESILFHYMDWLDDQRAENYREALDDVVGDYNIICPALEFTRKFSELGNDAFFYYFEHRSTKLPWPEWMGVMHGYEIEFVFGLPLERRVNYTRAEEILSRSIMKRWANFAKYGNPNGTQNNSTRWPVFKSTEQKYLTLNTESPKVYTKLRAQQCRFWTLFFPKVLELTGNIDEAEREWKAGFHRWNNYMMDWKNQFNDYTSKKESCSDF
Chain of Acetylcholinesterase (O42275 whole entry): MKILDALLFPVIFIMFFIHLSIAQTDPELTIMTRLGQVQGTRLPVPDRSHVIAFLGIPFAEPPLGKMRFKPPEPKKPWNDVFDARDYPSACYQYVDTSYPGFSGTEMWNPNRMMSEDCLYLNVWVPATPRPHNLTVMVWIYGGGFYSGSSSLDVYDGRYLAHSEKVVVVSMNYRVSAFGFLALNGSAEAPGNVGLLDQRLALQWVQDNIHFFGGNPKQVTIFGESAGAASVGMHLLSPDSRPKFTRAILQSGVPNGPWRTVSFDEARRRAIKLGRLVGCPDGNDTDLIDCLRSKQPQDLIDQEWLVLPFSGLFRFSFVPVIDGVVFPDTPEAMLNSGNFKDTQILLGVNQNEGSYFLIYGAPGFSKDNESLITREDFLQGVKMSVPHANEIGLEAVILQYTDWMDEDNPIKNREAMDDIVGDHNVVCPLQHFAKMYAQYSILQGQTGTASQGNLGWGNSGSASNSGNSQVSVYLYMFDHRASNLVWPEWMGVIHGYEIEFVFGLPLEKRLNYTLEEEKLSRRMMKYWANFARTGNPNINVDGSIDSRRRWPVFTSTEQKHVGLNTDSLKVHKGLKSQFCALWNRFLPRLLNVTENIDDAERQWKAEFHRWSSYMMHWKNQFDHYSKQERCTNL

Regarding `O=C(NCCCCNc1c2c(nc3ccccc13)CCCC2)c1cnc(Cl)c(Cl)c1`, the IC50 against Cholinesterase worked out at 41.4 nM; against Acetylcholinesterase it was 1.65 nM.
`O=C(NCCCCCCNc1c2c(nc3ccccc13)CCCC2)c1cnc(Cl)c(Cl)c1`: the IC50 against Cholinesterase is 12.9 nM; against Acetylcholinesterase it was 4.2 nM.
For `O=C(NCCCCCCCCNc1c2c(nc3ccccc13)CCCC2)c1cnc(Cl)c(Cl)c1` the same measures were 10.7 nM and 10.3 nM.
The like results for `O=C(NCCNc1c2c(nc3ccccc13)CCCC2)c1cnc(Cl)c(Cl)c1` were, in that order, 726 nM and 16.7 nM.
For `O=C(NCCCCCCCCCNc1c2c(nc3ccccc13)CCCC2)c1cnc(Cl)c(Cl)c1` the same measures were 3.33 nM and 3.12 nM.
As for `Cl.O=C(NCCCNc1c2c(nc3ccccc13)CCCC2)c1cnc(Cl)c(Cl)c1`, the viability at 48 h, 2.3 µM in data set [1] amounted to 46%. For the same molecule, the IC50 against Hyaluronidase was 465750 nM; against Cholinesterase it was 160 nM; at Acetylcholinesterase, 1.02 nM; with A549, 2000 nM. In addition, the inhibition worked out at 26.6% in data set [2], 46.6% in [3], 19.4% in data set [4] and 31.1% in data set [6]. The selectivity ratio turned out to be 13 in the data set on BuChE (equine serum) and 1960 in the data set on AChE (electric eel). In [5], the viability at 48 h, 0.9 µM was 82.3%.
On to `O=C(NCCCCCNc1c2c(nc3ccccc13)CCCC2)c1cnc(Cl)c(Cl)c1`, for which the IC50 was 13.5 nM on Cholinesterase and 2.9 nM at Acetylcholinesterase.
The like results for `O=C(NCCCCCCCNc1c2c(nc3ccccc13)CCCC2)c1cnc(Cl)c(Cl)c1` were, in that order, 11.4 nM and 12.3 nM.
